Tests used:
[1] = system: EAAT2; test: Spinal cord organotypic culture screen for EAAT2 protein expression (slot blot); assay type: cell-based, rat
Description: Screening Assay for EAAT2 Protein overexpression. […] Organotypic Spinal Cord. […] Briefly, 300 um sections of rat lumbar spinal cord, from postnatal day 8-10 rat pups, are placed on Millipore Millicell CM semipermeable membranes. Each well contains 5 slices (FIG. 2A). […] Each drug (10-100 μM) was added for 3 days, along with cell culture medium/serum. Cultures were harvested and 5-50 μg of tissue was applied to slot blot apparatus for detection of EAAT2 by standard Western blotting/chemiluminescence methods described in the past. […] All antipeptide antibodies were affinity purified and highly specific for transporter subtypes. […] For each antibody slot blot, the homogenates used are expected to be within the linear range for antibody detection, based on prior standard curves. Screening Library-Assay Design. […] The library is composed of 1040 compounds in 96 well plates, that also included positive control for transporter synthesis (dibutyryl cyclic AMP [dbcAMP], GDNF). […] Each compound was studied at a final concentration of 10-100 μM. All assays were performed in duplicate. Data Analysis. All blots were analyzed by laser densitometry (BioRad Image Quant) and the duplicate points were averaged. Each blot included a positive control standard (e.g. dbcAMP) and a negative control standard (e.g. serum, DMSO). […]

[2] = system: large ventral horn motor neurons in organotypic spinal cord cultures; test: In vitro model of chronic motor neurodegeneration (THA, organotypic spinal cord cultures); assay type: cell-based, rat; details: THA 100 μM, ceftriaxone 0 to 100 μM, 4 weeks
Description: In vitro model of chronic motor neurodegeneration (FIG. 7B). A model of chronic neurodegeneration was used, based on the blockade of glutamate transport in spinal cord organotypic cultures, with the non specific inhibitor threo-hytdroyxaspartate (THA) or TBOA. Chronic incubation of cultures with THA (or TBOA) leads to chronic increase in extra cellular glutamate and subsequent slow death of motor neurons (over 4 weeks).
To determine if drug induced GLT1 promoter activation, and the subsequent over expression of GLT1 protein could be neuroprotective, we used the organotypic spinal cord paradigm. Organotypic spinal cord cultures were prepared from lumbar spinal cords of 8-day-old rat pups, as described previously. […] No drugs were added for the first 7 days following culture preparation. THA was then added to experimental cultures at a concentration of 100 μM, which produces death of motor neurons within 3 to 4 weeks. […] After 4 weeks, cultures were fixed, and immuostained for neurofilament (SMI-32, Sternberger) to quantify large ventral horn motor neurons (a well established method to follow motor neuron survival in this system).

[3] = system: cultures prepared from GLT-1 null mice; test: Chronic motor neurodegeneration model in cultures prepared from GLT-1 null mice; assay type: cell-based; details: not shown
[4] = system: G93A SOD1 mice; test: In vivo neuroprotection in the G93A SOD1 mouse
Description: Numerous studies have documented a contributory role for excess glutamate in this mouse model- and role for modulating glutamate receptors or transporters in neuroprotective strategies. Guo H., et al. Hum Mol Genet. 2003; 12:2519-2532. Modest over expression—by a transgenic approach—can alter disease onset and/or survival.

[5] = system: primary cortical mixed neuronal-glial cell cultures; details: 1 μM added 48 hours prior to 1 hour OGD; 50% without drug
Description: Method. Primary cortical mixed neuronal-glial cell cultures are prepared from gestation day 14-16 CD1 mice. The preparation of these cultures from mouse fetal cortex is well-described. Experiments are performed at days in vitro 13-15. In the experimental condition, cultures are subjected to oxygen glucose deprivation (OGD), an in-vitro model of ischemia. Cortical cells are either subjected to control treatment (media, modified Earle's balanced salt solution including glucose and bubbled with 5% CO2 95% O2, is changed alongside treatment groups, but no OGD is performed), or 5 minutes (sublethal) of OGD (using modified Earle's balanced salt solution which is devoid of glucose and bubbled with 10% H2, 85% N2, and 5% to deoxygenate). Anaerobic conditions are achieved using an anaerobic chamber at 37° C. OGD is terminated by exchange of media back to oxygenated growing medium. Twenty-four hours following the above, cortical cells are subjected either to no treatment, or one hour of OGD. Neuronal survival is determined by computer-assisted cell counting after staining with the fluorescent vital dyes propidium iodide (as an indicator of neuronal death) and Hoechst 33342 (as an indicator of total number of neurons) and is presented as percent of cell death. Glial nuclei fluoresce at a lower intensity and are gated out. […] Following 1 hour OGD, cells are returned to growing medium without drugs.

[6] = 200 mg/kg ip from approximately 12 weeks of age

CO/N=C(\C(=O)N[C@@H]1C(=O)N2C(C(=O)O)=C(CSc3nc(=O)c(=O)[nH]n3C)CS[C@H]12)c1csc(N)n1 [ceftriaxone]
increase of GLT1 protein and function ([1]; at the concentration used for neuroprotection (Preliminary Data Phases 1 and 2)): at least 3 fold
EC50 ([1]; follow-up dose response analysis, spinal cord organotypic cultures): 3.5 µM
motor neuron loss [2]: prevented motor neurons loss in a dose dependent manner
neuroprotection in GLT-1 null cultures [3]: neuroprotection cannot be seen
duration of strength effect [4, 6]: 4 weeks
time after treatment at which strength effect was observed [4, 6]: ≤ 7 days
increase in over all survival ([4]; 200 mg/kg ip from approximately 12 weeks of age (disease onset)): 7 to 10 days
loss of muscle strength (grip strength) ([4]; 200 mg/kg ip from approximately 12 weeks of age, preservation lost by 18 weeks of age): significantly delayed loss of muscle strength
percentage of neuronal cell death after 1 hour OGD [5]: 20%
